Test [1] deals with M1, M2 (w/Gqi5) and M3 ACh receptors stably expressed in CHO cells. In words: Calcium mobilization (FLIPR) IC50 determination for antagonists, inhibition of ACh induced muscarinic receptor activation. Format: cell-based, human. To be noted: EC80 ACh, active if IC50 of between 33 uM and 10 nM or less, listed examples found to be the most active. The text has this:
Studies to determine the effectiveness of antagonists to cause blockade of functional intracellular calcium fluxes following agonist (ACh) treatment of cloned human receptors.
This system is used for characterizations of antagonist-receptor interactions using four distinct variations of the FLIPR methodology: (a) potency: IC50 determination, (b) potency: pA2 determination, (c) reversibility of antagonist-receptor interaction, or (d) confirmation of no functional agonist activity. Cell Source The human M1-M3 receptors are cloned and stably expressed in Chinese Hamster Ovary (CHO) cells. The M2 receptors are co-expressed with the chimeric G protein, Gqi5. […] The emitted fluorescence from all 96 wells is measured simultaneously using a cooled CCD camera. […] Experimental Protocols: Cell plating: A microtiter plate based calcium mobilization FLIPR (Fluorometric Imaging Plate Reader, Molecular Devices, Sunnyvale Calif., [Schroeder K S, Neagle, B D. FLIPR: a new instrument for accurate, high throughput optical screening. J. Biomol. Screen. 1996; 1:75.]) assay is used for the functional characterization of compounds against M1, M2 (w/Gqi5) and M3 ACh receptors stably expressed in CHO cells. […]
Background: Calcium flux is commonly read through the fluorescence of an indicator in the cells.

In the next test the target is T1, Human recombinant PDE4B (Homo sapiens, UniProt Q07343).
T1 construct: made in house; host or cells: Saccharomyces cerevisiae strain GL62
T1 sequence (Q07343 1-564 isoform Q07343-2): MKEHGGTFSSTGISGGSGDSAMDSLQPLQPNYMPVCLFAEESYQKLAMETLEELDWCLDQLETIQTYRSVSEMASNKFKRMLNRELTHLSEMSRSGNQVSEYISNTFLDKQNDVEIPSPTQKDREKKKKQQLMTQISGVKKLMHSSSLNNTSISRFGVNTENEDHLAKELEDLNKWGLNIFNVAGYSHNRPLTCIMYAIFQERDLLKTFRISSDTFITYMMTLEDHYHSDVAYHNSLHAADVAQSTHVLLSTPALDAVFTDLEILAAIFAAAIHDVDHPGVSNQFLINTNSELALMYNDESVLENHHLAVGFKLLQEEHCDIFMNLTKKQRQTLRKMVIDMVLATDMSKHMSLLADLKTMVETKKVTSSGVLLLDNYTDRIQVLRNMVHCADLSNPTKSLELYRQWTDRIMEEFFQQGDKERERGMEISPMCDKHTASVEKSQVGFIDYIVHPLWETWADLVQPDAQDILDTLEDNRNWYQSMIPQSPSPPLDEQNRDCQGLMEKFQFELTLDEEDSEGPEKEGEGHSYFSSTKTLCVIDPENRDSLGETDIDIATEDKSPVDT
The experiment in a line: Inhibition of PDE activity: luciferase-coupled PDE assay (PDE4B). Format: biochemical. To be noted: active if pIC50 of about 6 to 10.4 or greater against PDE4B; listed examples found to be the most active. The text has this:
Human recombinant PDE4B, in particular the 2B splice variant thereof (HSPDE4B2B), is disclosed in WO 94/20079 and also in M. M. McLaughlin et al., “A low Km, rolipram-sensitive, cAMP-specific phosphodiesterase from human brain: cloning and expression of cDNA, biochemical characterization of recombinant protein, and tissue distribution of mRNA”, J. Biol. Chem., 1993, 268, 6470-6476. For example, in Example 1 of WO 94/20079, human recombinant PDE4B is described as being expressed in the PDE-deficient yeast Saccharomyces cerevisiae strain GL62. PDE4B expression is induced by the addition of 150 μM CuSO4.
For luminescence-coupled assay based screening the supernatant fractions of yeast cell lysates are subjected to Cibacron blue affinity chromatography, dialysis and desalting, to enrich for PDE4B and to remove components, e.g. ATP, able to interfere with the assay. Human recombinant PDE4D (HSPDE4D3A) is disclosed in P. A. Baecker et al., “Isolation of a cDNA encoding a human rolipram-sensitive cyclic AMP phosphodiesterase (PDE IVD)”, Gene, 1994, 138, 253-256. Expression of human PDE4D in yeast, and subsequent preparation of the recombinant protein for assay was as described for PDE4B.
Inhibition of PDE4B and PDE4D are measured using a luminescence-coupled assay system developed by Cambrex. This assay system couples the formation of AMP, derived from PDE4-catalyzed hydrolysis of cAMP, to the formation of ATP. The ATP is then used as a substrate for Luciferase and results in light as a signal output. […] The luminescence is then measured on a Viewlux imager (Perkin Elmer) using emission filters of 613/55 nm or 618/40 nm and a 5 second exposure. […] Curves were analyzed using ActivityBase and XL fit, and results are expressed as pIC50 values. […]
Curves were analyzed using ActivityBase and XLfit, and results are expressed as pIC50 values. […]

As for `CCc1nc2c(cnn2CC)c(NC2CCOCC2)c1CNC(=O)CC(=O)NCc1cccc(-c2cccc(CN3CCCNCC3)c2)c1` [Example 180, N-{[1,6-Diethyl-4-(tetrahydro-2H-pyran-4-ylamino)-1H-pyrazolo[3,4-b]pyridin-5-yl]methyl}-N′-{[3′-(hexahydro-1H-1,4-diazepin-1-ylmethyl)-3-biphenylyl]methyl}propanediamide], the “activity in FLIPR antagonist IC50 assay (inhibition of ACh induced response)” value in test [1] is on record as “most active”.
As to `CCc1nc2c(cnn2CC)c(NC2CCOCC2)c1CNC(=O)CCCC(=O)NCc1ccc(F)c(-c2cccc(CN3C[C@@H]4C[C@@H]3CN4Cc3ccccc3)c2)c1` [Example 193, N-{[1,6-diethyl-4-(tetrahydro-2H-pyran-4-ylamino)-1H-pyrazolo[3,4-b]pyridin-5-yl]methyl}-N′-[(6-fluoro-3′-{[(1R,4S)-5-(phenylmethyl)-2,5-diazabicyclo[2.2.1]hept-2-yl]methyl}-3-biphenylyl)methyl]pentanediamide], the “activity in FLIPR antagonist IC50 assay (inhibition of ACh induced response)” value in test [1] is listed as “most active”.
In the case of `CCc1nc2c(cnn2CC)c(NC2CCOCC2)c1CNC(=O)CC(=O)NCc1ccc(F)c(-c2cccc(CN3C[C@@H](C)N[C@@H](C)C3)c2)c1` [Example 217, N-{[1,6-diethyl-4-(tetrahydro-2H-pyran-4-ylamino)-1H-pyrazolo[3,4-b]pyridin-5-yl]methyl}-N′-[(3′-{[(3R,5S)-3,5-dimethyl-1-piperazinyl]methyl}-6-fluoro-3-biphenylyl)methyl]propanediamide], the “activity in the PDE4B assay (pIC50)” value on Human recombinant PDE4B was “most active”.
`CCc1nc2c(cnn2CC)c(NC2CCOCC2)c1CNC(=O)CCC(=O)NCc1ccc(Cl)c(-c2cccc(CN3CCN[C@@H](C)C3)c2)c1` [Example 265, N-[(6-chloro-3′-{[(3S)-3-methyl-1-piperazinyl]methyl}-3-biphenylyl)methyl]-N′-{[1,6-diethyl-4-(tetrahydro-2H-pyran-4-ylamino)-1H-pyrazolo[3,4-b]pyridin-5-yl]methyl}butanediamide]: the “activity in the PDE4B assay (pIC50)” value on Human recombinant PDE4B was “most active”.
As for `CCc1nc2c(cnn2CC)c(NC2CCOCC2)c1CNC(=O)CCC(=O)NCc1ccc(F)c(-c2cccc(CN3CCN[C@H](C)C3)c2)c1` [Example 267, N-{[1,6-diethyl-4-(tetrahydro-2H-pyran-4-ylamino)-1H-pyrazolo[3,4-b]pyridin-5-yl]methyl}-N′-[(6-fluoro-3′-{[(3R)-3-methyl-1-piperazinyl]methyl}-3-biphenylyl)methyl]butanediamide], the “activity in the PDE4B assay (pIC50)” value at Human recombinant PDE4B is recorded as “most active”.

Values taken from patent US8071588B2, “Dual pharmacophores—PDE4-muscarinic antagonistics” (Glaxo Group Limited, priority 2008, dated 2011).
